Literature values as cited in PubChem BioAssay AID1259409 (Chemical Carcinogenesis Research Information System (CCRIS), 2018).
Several values for one entry are separate records, joined by “and”; a condition that tells them apart may be missing. Equal values may be shown once.

Tested on: rodent chemically induced tumor inhibition, incidence and multiplicity
Test: CCRIS tumor inhibitor studies
Settings: Carcinogen: NONE USED, Route [Inhibitor]: ORAL, Promoter: NONE USED

## CC(N)Cc1ccccc1 (stereo not given)
Dose [Inhibitor]: 0, 20 PPM IN FEED FOR 103 WK (STUDY DURATION: 2 YR), Species: MOUSE, Strain/Sex: B6C3F1/FEMALE, Target Tissue: Type of Lesion: HARDERIAN GLAND: ADENOMA
  tumour outcome (control, treated, inhibition, significance): 5/50 (10%), 2/50 (4%), 60%, not calculated
Dose [Inhibitor]: 0, 20 PPM IN FEED FOR 103 WK (STUDY DURATION: 2 YR), Species: MOUSE, Strain/Sex: B6C3F1/FEMALE, Target Tissue: Type of Lesion: LIVER: ADENOMA
  tumour outcome (control, treated, inhibition, significance): 5/50 (10%), 1/50 (2%), 80%, not calculated
Dose [Inhibitor]: 0, 20 PPM IN FEED FOR 103 WK (STUDY DURATION: 2 YR), Species: MOUSE, Strain/Sex: B6C3F1/FEMALE, Target Tissue: Type of Lesion: LUNG: ADENOMA OR CARCINOMA
  tumour outcome (control, treated, inhibition, significance): 8/50 (16%), 6/50 (12%), 25%, not calculated
Dose [Inhibitor]: 0, 20 PPM IN FEED FOR 103 WK (STUDY DURATION: 2 YR), Species: MOUSE, Strain/Sex: B6C3F1/FEMALE, Target Tissue: Type of Lesion: LUNG: ADENOMA
  tumour outcome (control, treated, inhibition, significance): 7/50 (14%), 4/50 (8%), 43%, not calculated
Dose [Inhibitor]: 0, 20 PPM IN FEED FOR 103 WK (STUDY DURATION: 2 YR), Species: MOUSE, Strain/Sex: B6C3F1/MALE, Target Tissue: Type of Lesion: HARDERIAN GLAND: ADENOMA
  tumour outcome (control, treated, inhibition, significance): 4/50 (8%), 2/50 (4%), 50%, not calculated
Dose [Inhibitor]: 0, 20 PPM IN FEED FOR 103 WK (STUDY DURATION: 2 YR), Species: MOUSE, Strain/Sex: B6C3F1/MALE, Target Tissue: Type of Lesion: LIVER: ADENOMA OR CARCINOMA
  tumour outcome (control, treated, inhibition, significance): 14/50 (28%), 12/50 (24%), 15%, not calculated
Dose [Inhibitor]: 0, 20 PPM IN FEED FOR 103 WK (STUDY DURATION: 2 YR), Species: MOUSE, Strain/Sex: B6C3F1/MALE, Target Tissue: Type of Lesion: LIVER: ADENOMA
  tumour outcome (control, treated, inhibition, significance): 10/50 (20%), 7/50 (14%), 30%, not calculated
Dose [Inhibitor]: 0, 20 PPM IN FEED FOR 103 WK (STUDY DURATION: 2 YR), Species: MOUSE, Strain/Sex: B6C3F1/MALE, Target Tissue: Type of Lesion: LIVER: CARCINOMA
  tumour outcome (control, treated, inhibition, significance): 4/50 (8%), 6/50 (12%), -50%, not calculated
Dose [Inhibitor]: 0, 20 PPM IN FEED FOR 103 WK (STUDY DURATION: 2 YR), Species: MOUSE, Strain/Sex: B6C3F1/MALE, Target Tissue: Type of Lesion: LUNG: ADENOMA
  tumour outcome (control, treated, inhibition, significance): 6/50 (12%), 2/50 (4%), 67%, not calculated
Dose [Inhibitor]: 0, 20 PPM IN FEED FOR 103 WK (STUDY DURATION: 2 YR), Species: RAT, Strain/Sex: F344/FEMALE, Target Tissue: Type of Lesion: ANTERIOR PITUITARY GLAND: ADENOMA
  tumour outcome (control, treated, inhibition, significance): 3/50 (62%), 24/48 (50%), 19%, not calculated
Dose [Inhibitor]: 0, 20 PPM IN FEED FOR 103 WK (STUDY DURATION: 2 YR), Species: RAT, Strain/Sex: F344/FEMALE, Target Tissue: Type of Lesion: MAMMARY GLAND: FIBROADENOMA
  tumour outcome (control, treated, inhibition, significance): 21/50 (42%), 11/50 (22%), 48%, not calculated
Dose [Inhibitor]: 0, 20 PPM IN FEED FOR 103 WK (STUDY DURATION: 2 YR), Species: RAT, Strain/Sex: F344/FEMALE, Target Tissue: Type of Lesion: UTERUS: ENDOMETRIAL STROMA POLYP
  tumour outcome (control, treated, inhibition, significance): 10/50 (20%), 6/50 (12%), 40%, not calculated
Dose [Inhibitor]: 0, 20 PPM IN FEED FOR 103 WK (STUDY DURATION: 2 YR), Species: RAT, Strain/Sex: F344/MALE, Target Tissue: Type of Lesion: ADRENAL GLAND: PHEOCHROMOCYTOMA
  tumour outcome (control, treated, inhibition, significance): 23/49 (47%), 15/44 (34%), 28%, not calculated
Dose [Inhibitor]: 0, 20 PPM IN FEED FOR 103 WK (STUDY DURATION: 2 YR), Species: RAT, Strain/Sex: F344/MALE, Target Tissue: Type of Lesion: ANTERIOR PITUITARY GLAND: ADENOMA
  tumour outcome (control, treated, inhibition, significance): 15/49 (31%), 15/48 (31%), 0%, not significant
Dose [Inhibitor]: 0, 100 PPM IN FEED FOR 103 WK (STUDY DURATION: 2 YR), Species: MOUSE, Strain/Sex: B6C3F1/FEMALE, Target Tissue: Type of Lesion: ANTERIOR PITUITARY GLAND: ADENOMA
  tumour outcome (control, treated, inhibition, significance): 12/49 (24%), 6/49 (12%), 50%, not calculated and 12/49 (24%), 1/46 (2%), 92%, p<0.01
Dose [Inhibitor]: 0, 100 PPM IN FEED FOR 103 WK (STUDY DURATION: 2 YR), Species: MOUSE, Strain/Sex: B6C3F1/FEMALE, Target Tissue: Type of Lesion: HARDERIAN GLAND: ADENOMA
  tumour outcome (control, treated, inhibition, significance): 5/50 (10%), 0/47 (0%), 100%, p<0.05
Dose [Inhibitor]: 0, 100 PPM IN FEED FOR 103 WK (STUDY DURATION: 2 YR), Species: MOUSE, Strain/Sex: B6C3F1/FEMALE, Target Tissue: Type of Lesion: LUNG: ADENOMA OR CARCINOMA
  tumour outcome (control, treated, inhibition, significance): 8/50 (16%), 1/47 (2%), 88%, p<0.01
Dose [Inhibitor]: 0, 100 PPM IN FEED FOR 103 WK (STUDY DURATION: 2 YR), Species: MOUSE, Strain/Sex: B6C3F1/FEMALE, Target Tissue: Type of Lesion: LUNG: ADENOMA
  tumour outcome (control, treated, inhibition, significance): 7/50 (14%), 1/47 (2%), 86%, p<0.05
Dose [Inhibitor]: 0, 100 PPM IN FEED FOR 103 WK (STUDY DURATION: 2 YR), Species: MOUSE, Strain/Sex: B6C3F1/MALE, Target Tissue: Type of Lesion: LIVER: ADENOMA OR CARCINOMA
  tumour outcome (control, treated, inhibition, significance): 14/50 (28%), 2/50 (4%), 86%, p<0.01
Dose [Inhibitor]: 0, 100 PPM IN FEED FOR 103 WK (STUDY DURATION: 2 YR), Species: MOUSE, Strain/Sex: B6C3F1/MALE, Target Tissue: Type of Lesion: LIVER: ADENOMA
  tumour outcome (control, treated, inhibition, significance): 10/50 (20%), 1/50 (2%), 90%, p<0.01
Dose [Inhibitor]: 0, 100 PPM IN FEED FOR 103 WK (STUDY DURATION: 2 YR), Species: MOUSE, Strain/Sex: B6C3F1/MALE, Target Tissue: Type of Lesion: LIVER: CARCINOMA
  tumour outcome (control, treated, inhibition, significance): 4/50 (8%), 1/50 (2%), 75%, not calculated
Dose [Inhibitor]: 0, 100 PPM IN FEED FOR 103 WK (STUDY DURATION: 2 YR), Species: MOUSE, Strain/Sex: B6C3F1/MALE, Target Tissue: Type of Lesion: LUNG: ADENOMA
  tumour outcome (control, treated, inhibition, significance): 6/50 (12%), 3/50 (6%), 50%, not calculated
Dose [Inhibitor]: 0, 100 PPM IN FEED FOR 103 WK (STUDY DURATION: 2 YR), Species: RAT, Strain/Sex: F344/FEMALE, Target Tissue: Type of Lesion: ANTERIOR PITUITARY GLAND: ADENOMA
  tumour outcome (control, treated, inhibition, significance): 31/50 (62%), 19/50 (38%), 39%, p<0.05
Dose [Inhibitor]: 0, 100 PPM IN FEED FOR 103 WK (STUDY DURATION: 2 YR), Species: RAT, Strain/Sex: F344/FEMALE, Target Tissue: Type of Lesion: MAMMARY GLAND: FIBROADENOMA
  tumour outcome (control, treated, inhibition, significance): 21/50 (42%), 2/50 (4%), 90%, p<0.01
Dose [Inhibitor]: 0, 100 PPM IN FEED FOR 103 WK (STUDY DURATION: 2 YR), Species: RAT, Strain/Sex: F344/FEMALE, Target Tissue: Type of Lesion: UTERUS: ENDOMETRIAL STROMA POLYP
  tumour outcome (control, treated, inhibition, significance): 10/50 (20%), 3/50 (6%), 70%, p<0.05
Dose [Inhibitor]: 0, 100 PPM IN FEED FOR 103 WK (STUDY DURATION: 2 YR), Species: RAT, Strain/Sex: F344/MALE, Target Tissue: Type of Lesion: ADRENAL GLAND: PHEOCHROMOCYTOMA
  tumour outcome (control, treated, inhibition, significance): 23/49 (47%), 7/50 (14%), 70%, p<0.01
Dose [Inhibitor]: 0, 100 PPM IN FEED FOR 103 WK (STUDY DURATION: 2 YR), Species: RAT, Strain/Sex: F344/MALE, Target Tissue: Type of Lesion: ANTERIOR PITUITARY GLAND: ADENOMA
  tumour outcome (control, treated, inhibition, significance): 15/49 (31%), 9/49 (18%), 42%, not calculated
Dose [Inhibitor]: 0, 100 PPM IN FEED FOR 103 WK (STUDY DURATION; 2 YR), Dose [Inhibitor]: 0, 100 PPM IN FEED FOR 103 WK (STUDY DURATION; 2 YR), Species: MOUSE, Strain/Sex: B6C3F1/MALE, Target Tissue: Type of Lesion: HARDERIAN GLAND: ADENOMA
  tumour outcome (control, treated, inhibition, significance): 4/50 (8%), 0/50 (0%), 100%, not calculated
Dose [Inhibitor]: O, 20 PPM IN FEED FOR 103 WK (STUDY DURATION: 2 YR), Species: MOUSE, Strain/Sex: B6C3F1/MALE, Target Tissue: Type of Lesion: LUNG: ADENOMA OR CARCINOMA
  tumour outcome (control, treated, inhibition, significance): 8/50 (16%), 3/50 (6%), 63%, not calculated
Dose [Inhibitor]: O, 100 PPM IN FEED FOR 103 WK (STUDY DURATION: 2 YR), Species: MOUSE, Strain/Sex: B6C3F1/MALE, Target Tissue: Type of Lesion: LUNG: ADENOMA OR CARCINOMA
  tumour outcome (control, treated, inhibition, significance): 8/50 (16%), 4/50 (8%), 50%, not calculated
